Experimental data as given in ChEMBL document CHEMBL6182913, “Design of Potent Small-Molecule Stimulator of Interferon Gene Inhibitor and Stimulator of Interferon Gene Mutant-Specific Degrader” (J Med Chem, 2025).

What was measured:
[1] = biological target: Stimulator of interferon genes protein (Homo sapiens, UniProt Q86WV6, G230A/R293Q/R71H); test: Inhibition of cGAMP-induced STING HAQ mutant transfected in human THP1-Blue ISG cells preincubated with compound for 6 hrs followed by cGAMP addition and measured after 18 hrs by QUANTI-Blue based microplate reader analysis; format: cell-based
[2] = Cytotoxicity against human THP1-Blue ISG cells assessed as inhibition of cell growth at 10 uM incubated for 24 hrs by MTS assay relative to control; format: toxicity, cell-based
[3] = Metabolic stability in mouse plasma assessed as half life in presence of NADPH by LC-MS/MS analysis; format: ADME, cell-free

Sequence of Stimulator of interferon genes protein (Q86WV6 whole entry R71H/G230A/R293Q): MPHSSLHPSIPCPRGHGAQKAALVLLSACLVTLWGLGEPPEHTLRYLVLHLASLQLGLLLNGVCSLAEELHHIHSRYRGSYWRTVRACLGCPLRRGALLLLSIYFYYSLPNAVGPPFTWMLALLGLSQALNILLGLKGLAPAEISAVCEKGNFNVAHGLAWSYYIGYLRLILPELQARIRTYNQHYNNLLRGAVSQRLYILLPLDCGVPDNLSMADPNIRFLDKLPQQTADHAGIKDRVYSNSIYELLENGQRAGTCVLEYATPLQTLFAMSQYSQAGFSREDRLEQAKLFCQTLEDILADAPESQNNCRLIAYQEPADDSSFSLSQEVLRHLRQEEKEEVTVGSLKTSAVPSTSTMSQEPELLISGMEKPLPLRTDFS

IC50 [1]	half-life [3]	SMILES	inhibition at 24 h, 10 µM [2]
> 10000 nM	–	CCC(=O)Nc1cc(NC(=O)c2ccc(Oc3ccc(C4C(C(N)=O)c5ccccc5C(=O)N4c4ccc(C(C)(C)C)c(Cl)c4)cc3)cc2)ccc1O (configuration not stated)	7.5%
> 10000 nM	–	CC(C)(C)c1ccc(N2C(=O)c3ccccc3C(C(N)=O)C2c2cc3cc(-c4ccc(C(=O)Nc5cc(O)cc(NS(C)(=O)=O)c5)cc4)ccc3o2)cc1Cl (configuration not stated)	46.2%
2300 nM	–	CC(C)(C)c1ccc(N2C(=O)c3cc(F)ccc3C(C(N)=O)C2c2cc3cc(-c4ccc(C(=O)Nc5ccc(O)c(NC(=O)C(F)(F)F)c5)cc4)ccc3s2)cc1Cl (configuration not stated)	12.5%
> 10000 nM	–	CC(C)(C)c1ccc(N2C(=O)c3ccccc3C(C(N)=O)C2c2cc3cc(-c4ccc(C(=O)Nc5cc(-c6ccco6)n[nH]5)cc4)ccc3o2)cc1Cl (configuration not stated)	17.8%
800 nM	–	CC(C)(C)c1ccc(N2C(=O)c3cc(F)ccc3C(C(N)=O)C2c2ccc3sc(-c4ccc(C(=O)Nc5ccc(O)c(NS(C)(=O)=O)c5)cc4F)cc3c2)cc1Cl (configuration not stated)	11.1%
820 nM	–	CN(c1ccc(C(=O)Nc2ccc(O)c(NS(C)(=O)=O)c2)cc1)c1ccc(C2C(C(N)=O)c3ccccc3C(=O)N2c2ccc(C(C)(C)C)c(Cl)c2)cc1 (configuration not stated)	1.2%
270 nM	–	CS(=O)(=O)Nc1cc(NC(=O)c2ccc(-c3ccc4oc(C5C(C(N)=O)c6ccccc6C(=O)N5c5ccc(Br)c(Cl)c5)cc4c3)cc2)ccc1O (configuration not stated)	65.1%
440 nM	–	CC(C)(C)c1ccc(N2C(=O)c3ccccc3C(C(N)=O)C2c2cc3cc(-c4ccc(C(=O)Nc5ccc(O)c(NS(C)(=O)=O)c5)cc4)ccc3s2)cc1Cl (configuration not stated)	15.9%
110 nM	–	CS(=O)(=O)Nc1cc(NC(=O)c2ccc(-c3ccc4oc(C5C(C(N)=O)c6ccccc6C(=O)N5c5ccc(C6CC6)c(Cl)c5)cc4c3)cc2)ccc1O (configuration not stated)	61.5%
> 10000 nM	–	CC(C)(C)c1ccc(N2C(=O)c3cc(F)ccc3C(C(N)=O)C2c2ccc3sc(-c4ccc(C(=O)Nc5ccc(O)c(C(N)=O)c5)cc4)cc3c2)cc1Cl (configuration not stated)	14.7%
> 10000 nM	–	CC(C)(C)c1ccc(N2C(=O)c3ccccc3C(C(N)=O)C2c2cc3cc(-c4ccc(C(=O)Nc5ccc(F)c(NS(C)(=O)=O)c5)cc4)ccc3o2)cc1Cl (configuration not stated)	26.8%
100 nM	–	CC(C)(C)c1ccc(N2C(=O)c3ccccc3C(C(N)=O)C2c2cc3cc(-c4ccc(C(=O)Nc5ccc(O)c(NS(C)(=O)=O)c5)cc4)ccc3o2)cc1F (configuration not stated)	55.6%
270 nM	–	CS(=O)(=O)Nc1cc(NC(=O)c2ccc(-c3ccc4oc(C5C(C(N)=O)c6ccccc6C(=O)N5c5ccc(C6CC6)cc5)cc4c3)cc2)ccc1O (configuration not stated)	25.6%
> 10000 nM	–	CC(C)(C)c1ccc(N2C(=O)c3ccccc3C(C(N)=O)C2c2cc3cc(-c4ccc(C(=O)NC5CCN(S(C)(=O)=O)CC5)cc4)ccc3o2)cc1Cl (configuration not stated)	35.2%
> 10000 nM	–	CC(C)(C)c1ccc(N2C(=O)c3ccccc3C(C(=O)O)C2c2cc3cc(-c4ccc(C(=O)Nc5ccc(O)c(NS(C)(=O)=O)c5)cc4)ccc3s2)cc1Cl (configuration not stated)	0%
5800 nM	–	CC(C)(C)c1ccc(N2C(=O)c3ccccc3C(C(N)=O)C2c2cc3cc(-c4ccc(C(=O)Nc5ccc(O)c(NC(=O)C(F)(F)F)c5)cc4)ccc3o2)cc1Cl (configuration not stated)	4.9%
> 10000 nM	–	CC(C)(C)c1ccc(N2C(=O)c3ccccc3C(C(N)=O)C2c2cc3cc(-c4ncc(C(=O)Nc5ccc(O)c(NS(C)(=O)=O)c5)cn4)ccc3o2)cc1Cl (configuration not stated)	20.4%
> 10000 nM	–	CC(C)(C)c1ccc(N2C(=O)c3ccccc3C(C(N)=O)C2c2cc3cc(-c4ccc(C(=O)N[C@H]5CC[C@H](O)CC5)cc4)ccc3o2)cc1Cl (some centres not stated)	67%
950 nM	–	CC(C)(C)c1ccc(N2C(=O)c3cc(F)ccc3C(C(N)=O)C2c2ccc3sc(-c4ccc(C(=O)Nc5ccc(O)c(NS(C)(=O)=O)c5)cc4)cc3c2)cc1Cl (configuration not stated)	7.7%
> 10000 nM	–	CC(C)(C)c1ccc(N2C(=O)c3ccccc3C(C(N)=O)C2c2ccc3c(c2)C=C(c2ccc(C(=O)Nc4ccc(O)c(NS(C)(=O)=O)c4)cc2)S3(=O)=O)cc1Cl (configuration not stated)	36.1%
> 10000 nM	–	CC(C)(C)c1ccc(N2C(=O)c3ccccc3C(C(N)=O)C2c2ccc(Oc3ccc(C(=O)Nc4ccc(CO)c(NS(C)(=O)=O)c4)cc3)cc2)cc1Cl (configuration not stated)	0%
2800 nM	–	CC(C)(C)c1ccc(N2C(=O)c3ccccc3C(C(N)=O)C2c2ccc3oc(-c4ccc(C(=O)Nc5ccc(O)c(NS(C)(=O)=O)c5)cc4)cc3c2)cc1Cl (configuration not stated)	14%

IC50 [1]	half-life [3]	SMILES	inhibition at 24 h, 10 µM [2]
140 nM	–	CC(C)(C)c1ccc(N2C(=O)c3ccccc3C(C(N)=O)C2c2cc3cc(-c4ccc(C(=O)Nc5ccc(O)c(NS(C)(=O)=O)c5)cn4)ccc3o2)cc1Cl (configuration not stated)	45.7%
> 10000 nM	–	CC(C)(C)c1ccc(N2C(=O)c3ccccc3C(C(N)=O)C2c2cc3cc(-c4ccc(C(=O)N[C@H]5CC[C@@H](O)CC5)cc4)ccc3o2)cc1Cl (some centres not stated)	59.6%
540 nM	–	CS(=O)(=O)Nc1cc(NC(=O)c2ccc(-c3ccc4oc(C5C(C(N)=O)c6ccccc6C(=O)N5c5ccc6c(c5)CCCC6)cc4c3)cc2)ccc1O (configuration not stated)	38.7%
> 10000 nM	–	CC(C)(C)c1ccc(N2C(=O)c3ccccc3C(C(N)=O)C2c2cc3cc(-c4ccc(C(=O)Nc5ccc(N)c(NS(C)(=O)=O)c5)cc4)ccc3o2)cc1Cl (configuration not stated)	28.5%
> 10000 nM	–	CC(C)(C)c1ccc(N2C(=O)c3ccccc3C(C(N)=O)C2c2ccc(Oc3ccc(C(=O)Nc4ccc(NS(C)(=O)=O)cc4)cc3)cc2)cc1Cl (configuration not stated)	13.7%
> 10000 nM	–	CC(C)(C)c1ccc(N2C(=O)c3cc(F)ccc3C(C(N)=O)C2c2ccc3sc(-c4ccc(C(=O)Nc5ccc(O)c(NS(=O)(=O)C6CC6)c5)cc4)cc3c2)cc1Cl (configuration not stated)	7.7%
> 10000 nM	–	CC(C)(C)c1ccc(N2C(=O)c3ccccc3C(C(N)=O)C2c2cc3cc(-c4ccc(C(=O)Nc5ccc(O)c(NS(=O)(=O)C(F)(F)F)c5)cc4)ccc3o2)cc1Cl (configuration not stated)	20.2%
> 10000 nM	–	CC(C)(C)c1ccc(N2C(=O)c3ccccc3C(C(N)=O)C2c2ccc(Oc3ccc(C(=O)Nc4ccc(O)c(NS(C)(=O)=O)c4)cc3)cc2)cc1Cl (configuration not stated)	33.8%
2500 nM	–	CC(=O)Nc1cc(NC(=O)c2ccc(Oc3ccc(C4C(C(N)=O)c5ccccc5C(=O)N4c4ccc(C(C)(C)C)c(Cl)c4)cc3)cc2)ccc1O (configuration not stated)	67.2%
3600 nM	–	CS(=O)(=O)Nc1cc(NC(=O)c2ccc(-c3ccc4oc(C5C(C(N)=O)c6ccccc6C(=O)N5c5ccccc5)cc4c3)cc2)ccc1O (configuration not stated)	23%
> 10000 nM	–	CC(C)(C)c1ccc(N2C(=O)c3ccccc3C(C(N)=O)C2c2cc3cc(-c4ccc(NC(=O)c5cc(O)cc(NS(C)(=O)=O)c5)cc4)ccc3s2)cc1Cl (configuration not stated)	50.2%
> 10000 nM	–	CC(C)(C)c1ccc(N2C(=O)c3ccccc3C(C(N)=O)C2c2ccc(Oc3ccc(C(=O)Nc4cccc(NS(C)(=O)=O)c4)cc3)cc2)cc1Cl (configuration not stated)	10.5%
200 nM	> 4 h	CCS(=O)(=O)Nc1cc(NC(=O)c2ccc(-c3ccc4oc(C5C(C(N)=O)c6ccccc6C(=O)N5c5ccc(C(C)(C)C)c(Cl)c5)cc4c3)cc2)ccc1O (configuration not stated)	11.1%
3200 nM	–	CC(C)(C)c1ccc(N2C(=O)c3ccccc3C(C(N)=O)C2c2ccc(Nc3ccc(C(=O)Nc4ccc(O)c(NS(C)(=O)=O)c4)cc3)cc2)cc1Cl (configuration not stated)	0%
6500 nM	–	CN1C(=O)c2ccccc2C(C(N)=O)C1c1cc2cc(-c3ccc(C(=O)Nc4ccc(O)c(NS(C)(=O)=O)c4)cc3)ccc2o1 (configuration not stated)	57.9%
720 nM	–	CC(C)(C)c1ccc(N2C(=O)c3cc(F)ccc3C(C(N)=O)C2C2=Cc3cc(-c4ccc(C(=O)Nc5ccc(O)c(NS(C)(=O)=O)c5)cc4)ccc3S2(=O)=O)cc1Cl (configuration not stated)	12.7%
450 nM	–	CC(C)(C)c1ccc(N2C(=O)c3cc(F)ccc3C(C(N)=O)C2c2cc3cc(-c4ccc(C(=O)Nc5ccc(O)c(NS(C)(=O)=O)c5)cc4)ccc3s2)cc1Cl (configuration not stated)	23.2%
> 10000 nM	–	CC(C)(C)c1ccc(N2C(=O)c3ccccc3C(C(N)=O)C2c2ccc(Oc3ccc(C(=O)Nc4ccc(O)cc4)cc3)cc2)cc1Cl (configuration not stated)	29.4%
> 10000 nM	–	CC(=O)Nc1cc(NC(=O)c2ccc(Oc3ccc(C4C(C(N)=O)c5ccccc5C(=O)N4c4ccc(C(C)(C)C)c(Cl)c4)cc3)cc2)ccc1C (configuration not stated)	11.6%
3200 nM	–	CC(C)(C)c1ccc(N2C(=O)c3ccccc3C(C(N)=O)C2c2ccc(Oc3ccc(C(=O)Nc4cc(F)c(O)c(F)c4)cc3)cc2)cc1Cl (configuration not stated)	44.5%
180 nM	–	CC(C)(C)c1ccc(N2C(=O)c3ccccc3C(C(N)=O)C2c2ccc3sc(-c4ccc(C(=O)Nc5ccc(O)c(NS(C)(=O)=O)c5)cc4)cc3c2)cc1Cl (configuration not stated)	3.9%
